Measurements reported in patent US20210023034A1, “PHENYLALANINE DERIVATIVES FOR USE IN THE TREATMENT OF CANCERS” (UNIVERSITE PARIS EST CRETEIL VAL DE MARNE, priority 2018, published 2021).

Columns and labels:
Recombinant human IL4I1 = biological target: T1, Recombinant human IL4I1 (Homo sapiens, UniProt Q96RQ9); test: Evaluation of Ki, fluorometric IL4I1 assay; assay type: biochemical; details: for Ki: average of three experiments; for IL4I1 Inhibitor: recombinant human IL4I1, 30 min pre-incubation
T1 construct: purchased R&D Systems, Inc
T1 sequence (Q96RQ9 22-567): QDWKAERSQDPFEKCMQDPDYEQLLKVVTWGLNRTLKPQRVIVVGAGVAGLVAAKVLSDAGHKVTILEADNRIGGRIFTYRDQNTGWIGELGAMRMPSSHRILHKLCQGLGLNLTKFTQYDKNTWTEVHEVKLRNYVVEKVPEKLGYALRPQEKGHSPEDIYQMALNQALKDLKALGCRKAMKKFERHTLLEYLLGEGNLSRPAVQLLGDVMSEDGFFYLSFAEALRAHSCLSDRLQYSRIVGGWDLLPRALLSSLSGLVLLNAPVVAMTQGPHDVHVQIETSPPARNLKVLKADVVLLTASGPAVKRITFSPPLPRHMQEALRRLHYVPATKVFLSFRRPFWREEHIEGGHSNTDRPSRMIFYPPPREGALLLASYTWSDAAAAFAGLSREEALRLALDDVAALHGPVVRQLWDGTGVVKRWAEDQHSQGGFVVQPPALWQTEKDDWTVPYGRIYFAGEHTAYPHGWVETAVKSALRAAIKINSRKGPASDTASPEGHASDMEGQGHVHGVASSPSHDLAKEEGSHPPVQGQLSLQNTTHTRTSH
Experimental: Evaluation of Ki. Recombinant human IL4I1 (from R&D Systems, Inc) was diluted in PBS at 100 µg/mL and pre-incubated for 30 min with decreasing amounts of each inhibitor dissolved in DMSO (50, 25, and 2.5 μM) or DMSO as a control. The activity was tested in the presence of various amounts of substrate ([…] phenylalanine) using the fluorometric IL4I1 assay described by Carbonnelle-Puscian et al. (Leukemia, 2009, volume 23, pages 952-960 (2009). Ki were calculated using Graph Pad Prism.
Recombinant human IL4I1 was diluted in PBS at 100 µg/mL and pre-incubated for 30 min with decreasing amounts of each inhibitor dissolved in DMSO (50, 25, or 2.5 μM) or DMSO alone, as a control, and IL4I1 measured. […] Compound 13 inhibits IL4l1 activity with an almost 10-fold higher Ki.

Jurkat cells [1] = test: Jurkat cell counts (Trypan blue); assay type: cell-based; details: for Jurkat cell proliferation measured by cell counting: Trypan blue counts at days 1, 2, 3 and 6
Experimental: (§1) Cell counts. Jurkat cells were seeded at 0.1×10^6/mL in a 24-well plate and an aliquot mixed with Trypan blue and counted at days 1, 2, 3, and 6 using disposable Fast-read 10 chambers. Evaluation of metabolic proliferation. Jurkat cells were seeded at 0.1×10^6/mL in a 96-well plate and incubated at 37° C. in 5% CO2 for various times. At each time point, cells were centrifuged, the medium removed, and CellTiter 96® Non-Radioactive Cell Proliferation Assay reagent (Promega) added and the cells incubated an additional 4 h before measuring the optical density at 570 nm in a plate reader (BMG Labtech Fluostar Optima).
(§2) (A) Jurkat cells were seeded at 0.1×10^6/mL in a 24-well plate and an aliquot mixed with Trypan blue and counted at days 1, 2, 3, and 6. Data are the average±SD of three independent experiments. (B) Jurkat cells were seeded at 0.1×10^6/mL in a 96-well plate and incubated at 37° C. in 5% CO2 for the times indicated in FIG. 2. At each time point, cells were centrifuged, the medium removed, and the CellTiter 96® Non-Radioactive Cell Proliferation Assay (Promega) performed. Data are reported as the percentage of proliferation relative to that of the control samples (treated with DMSO) and are the average±SD of three independent experiments. *** p<0,001, **** p<0,0001 Two-way ANOVA test.

Jurkat cells [2] = test: Metabolic proliferation (CellTiter 96 Non-Radioactive Cell Proliferation Assay); assay type: cell-based; details: CellTiter 96, relative to DMSO control
Experimental: as §1, §2

Jurkat cells [3] = test: Evaluation of apoptosis, activated caspase-3 staining, Jurkat cells; assay type: cell-based; details: 100 μM, 24 h
Experimental: (§3) Evaluation of Apoptosis. Cells were seeded at 0.5×10^6/mL in 24-well plates, with or without the compounds at 100 μM or 10 μM etoposide (VP16) as a positive control, and incubated at 37° C. for 24 h. Cells were then fixed and permeabilized using cytox/cytoperm solution (BD Bioscience) followed by the addition of anti-activated caspase 3-AlexaFluor 647 (Rabbit anti-active Caspase 3 clone C92-605, BD Pharmingen). Caspase-3 positive cells were evaluated using a Cyan ADP LX7 (Beckman Coulter) and analyzed using Flowjo.
(§4) (A) Activated caspase-3 staining of Jurkat cells and (B) PBMC. Cells at 0.5×10^6/mL were seeded in 24-well plates with or without the compounds at 100 μM or 10 μM etoposide (VP16), as a positive control, and incubated at 37° C. for 24 h. Twenty-four hours after treatment, apoptotic Caspase-3 positive cells were evaluated by FACS. Data are expressed as the percentage of Caspase-3 positive cells±SD from three independent experiments.

PBMC = test: Evaluation of apoptosis, activated caspase-3 staining, PBMC; assay type: cell-based, human; details: 100 μM, 24 h
Experimental: as §3, §4

PBMCs = test: Cell proliferation of CPD eFluor670-labeled, anti-CD3 stimulated PBMCs (FACS); assay type: cell-based, human; details: for division index / proliferation index: PBMCs, relative to cells treated with DMSO; for proliferation of PBMCs: anti-CD3 stimulated, days 3 and 6, relative to DMSO
Experimental: (§5) Evaluation of cell proliferation. Jurkat cells and PBMCs were labeled with 2 μM Cell Proliferation Dye (CPD) eFluor670 for 10 min at 37° C. DMSO or the compounds were added to labeled PBMCs or Jurkat cells before putting them in culture at 0.2×10^6/well. Jurkat cells were cultured under standard conditions, whereas PBMCs were cultured in 96 U-shaped wells pre-coated with a 0.5 μg/mL solution of anti-CD3 (clone OKT3) functional quality antibody (eBioscience). Cells were collected at day 0, 3, and 6 for fluorescence analysis using a Cyan ADP LX7 (Beckman Coulter). Data were analyzed using Flowjo.
Cell proliferation dye fluor670-labeled PBMCs were stimulated to proliferate in 96-well anti-CD3 coated plates and analyzed at days 3 and 6 by FACS gating on the lymphocytes population. (A) A typical FACS analysis at day 3 is shown. (B) The division (left panel) and proliferation indices (right panel) were calculated using FlowJo. Data are representative of three independent experiments.

Jurkat cells [4] = test: Cell proliferation of CPD eFluor670-labeled Jurkat cells (FACS); assay type: cell-based; details: data not shown
Experimental: as §5

[5] = compounds disclosed in WO2010/06685

Structure (SMILES): NC(Cc1ccccn1)C(=O)O (stereo not shown) [2′-aza-phenylalanine, reference compound]
- Ki (Recombinant human IL4I1; [5]): 2800 µM

Structure (SMILES): CCCNC(Cc1ccccc1)C(=O)OCC (stereo not shown) [Cp 2]
- Ki (Recombinant human IL4I1): 21.3 µM
- IL4I1 Inhibitor (Recombinant human IL4I1): Yes
- Jurkat cell proliferation measured by cell counting (Jurkat cells [1]): do not affect cell proliferation
- Jurkat cell proliferation measured by metabolic labeling (Jurkat cells [2]): do not affect cell proliferation
- apoptosis of Jurkat cells (Caspase-3 positive cells) (Jurkat cells [3]): do not induce significant apoptosis
- apoptosis of PBMCs (Caspase-3 positive cells) (PBMC): do not induce significant apoptosis
- division index (PBMCs): do not vary markedly
- proliferation index (PBMCs): do not vary markedly
- proliferation of PBMCs (PBMCs): not substantially modified
- proliferation of Jurkat cells (Jurkat cells [4]): not substantially modified

Structure (SMILES): CCOC(=O)C(Cc1c(Cl)cccc1Cl)N1CCCCC1 (stereo not shown) [Cp 7]
- Ki (Recombinant human IL4I1): 9.8 µM
- IL4I1 Inhibitor (Recombinant human IL4I1): Yes
- Jurkat cell proliferation measured by cell counting (Jurkat cells [1]): strongly inhibits proliferation
- Jurkat cell proliferation measured by metabolic labeling (Jurkat cells [2]): strongly inhibits proliferation
- apoptosis of Jurkat cells (Caspase-3 positive cells) (Jurkat cells [3]): induced
- apoptosis of PBMCs (Caspase-3 positive cells) (PBMC): induced

Structure (SMILES): CCOC(=O)C(Cc1ccccc1)N(CC)CC (stereo not shown) [Cp 13]
- fold higher Ki (Recombinant human IL4I1; Ki compared with the other tested compounds): ~10 fold
- Ki (Recombinant human IL4I1): 102 µM
- IL4I1 Inhibitor (Recombinant human IL4I1): Yes
- Jurkat cell proliferation measured by cell counting (Jurkat cells [1]): do not affect cell proliferation
- Jurkat cell proliferation measured by metabolic labeling (Jurkat cells [2]): do not affect cell proliferation
- apoptosis of Jurkat cells (Caspase-3 positive cells) (Jurkat cells [3]): do not induce significant apoptosis
- apoptosis of PBMCs (Caspase-3 positive cells) (PBMC): do not induce significant apoptosis
- division index (PBMCs): do not vary markedly
- proliferation index (PBMCs): do not vary markedly
- proliferation of PBMCs (PBMCs): not substantially modified
- proliferation of Jurkat cells (Jurkat cells [4]): not substantially modified

Structure (SMILES): CCOC(=O)C(Cc1ccccc1)Nc1ccccc1 (stereo not shown) [Cp 15]
- Ki (Recombinant human IL4I1): 26.9 µM
- IL4I1 Inhibitor (Recombinant human IL4I1): Yes
- Jurkat cell proliferation measured by cell counting (Jurkat cells [1]): no cells remained after six days of culture
- toxicity to Jurkat cells (Jurkat cells [1]; six days of culture): toxic

Structure (SMILES): CCOC(=O)C(Cc1ccccc1)Nc1ccccc1C(O)C(=O)OCC (stereo not shown) [Cp 16]
- Ki (Recombinant human IL4I1): 25 µM
- IL4I1 Inhibitor (Recombinant human IL4I1): Yes
- apoptosis of Jurkat cells (Caspase-3 positive cells) (Jurkat cells [3]): does not induce apoptosis

Structure (SMILES): CCOC(=O)[C@@H](N)Cc1ccccc1 [L-phenylalanine ethyl ester, reference compound]
- Ki (Recombinant human IL4I1; [5]): 3100 µM

Structure (SMILES): CC(=O)N[C@@H](Cc1ccccc1)C(=O)O [N-acetyl-phenylalanine, reference compound]
- Ki (Recombinant human IL4I1; [5]): 2100 µM
